Experiments:
Carboplatin = compound: C1CC(C1)(C(=O)[O-])C(=O)[O-].N.N.[Pt+2] [Carboplatin]; conditions: max 10 µM
Summary of the method: (§1)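 In 1536-well plates, cancer cell lines in 7.5 μl DMEM/F12 or RPMI with 10% FBS spent 24 hours at 37°C and 5% CO2 and were then dosed for 72 hours with final DMSO typically 0.2%. Viability was read by CellTiter-Glo 2.0 luminescence and scaled between blank-well and DMSO-well means. The single-agent IC50 was fitted from dose responses using a logistic curve in a non-linear mixed effects model, and that logistic curve had two parameters.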

AZD5363 = compound: C1CN(CCC1(C(=O)N[C@@H](CCO)C2=CC=C(C=C2)Cl)N)C3=NC=NC4=C3C=CN4 [AZD5363]; conditions: max 10 µM
Summary of the method: as §1

AZD1775 = compound: C=CCn1c(=O)c2cnc(Nc3ccc(N4CCN(C)CC4)cc3)nc2n1-c1cccc(C(C)(C)O)n1 [AZD1775]; conditions: max 3 µM
Summary of the method: as §1

Trametinib = compound: CC(=O)Nc1cccc(-n2c(=O)n(C3CC3)c(=O)c3c(Nc4ccc(I)cc4F)n(C)c(=O)c(C)c32)c1 [Trametinib]; conditions: max 1 µM
Summary of the method: as §1

Paclitaxel = compound: CC(=O)O[C@H]1C(=O)[C@@]2(C)[C@H]([C@H](OC(=O)c3ccccc3)[C@]3(O)C[C@H](OC(=O)[C@H](O)[C@@H](NC(=O)c4ccccc4)c4ccccc4)C(C)=C1C3(C)C)[C@]1(OC(C)=O)CO[C@@H]1C[C@@H]2O [Paclitaxel]; conditions: max 3 µM
Summary of the method: as §1

Palbociclib = compound: CC(=O)c1c(C)c2cnc(Nc3ccc(N4CCNCC4)cn3)nc2n(C2CCCC2)c1=O [Palbociclib]; conditions: max 10 µM
Summary of the method: as §1

AZD1390 = compound: CC(C)n1c(=O)n(C)c2cnc3cc(F)c(-c4ccc(OCCCN5CCCCC5)nc4)cc3c21 [AZD1390]; conditions: max 0.3 µM
Summary of the method: as §1

Venetoclax = compound: CC1(C)CCC(CN2CCN(c3ccc(C(=O)NS(=O)(=O)c4ccc(NCC5CCOCC5)c([N+](=O)[O-])c4)c(Oc4cnc5[nH]ccc5c4)c3)CC2)=C(c2ccc(Cl)cc2)C1 [Venetoclax]; conditions: max 1 µM
Summary of the method: as §1

Dasatinib = compound: CC1=C(C(=CC=C1)Cl)NC(=O)C2=CN=C(S2)NC3=CC(=NC(=N3)C)N4CCN(CC4)CCO [Dasatinib]; conditions: max 2 µM
Summary of the method: as §1

SG3199 = compound: CC1=CN2[C@@H](C1)C=NC3=CC(=C(C=C3C2=O)OC)OCCCCCOC4=C(C=C5C(=C4)N=C[C@@H]6CC(=CN6C5=O)C)OC [SG3199]; conditions: max 0.001 µM
Summary of the method: as §1

AZD2811 = compound: CCN(CCO)CCCOc1ccc2c(Nc3cc(CC(=O)Nc4cccc(F)c4)[nH]n3)ncnc2c1 [AZD2811]; conditions: max 1 µM
Summary of the method: as §1

SN-38 = compound: CCc1c2c(nc3ccc(O)cc13)-c1cc3c(c(=O)n1C2)COC(=O)[C@]3(O)CC [SN-38]; conditions: max 0.3 µM
Summary of the method: as §1

AZD0156 = compound: CN(C)CCCOc1ccc(-c2ccc3ncc4c(c3c2)n(C2CCOCC2)c(=O)n4C)cn1 [AZD0156]; conditions: max 3 µM
Summary of the method: as §1

AZD4320 = compound: CN(CC[C@H](CSC1=CC=CC=C1)NC2=C(C=C(C=C2)S(=O)(=O)NC(=O)C3=CC=C(C=C3)N4CCC(CC4)[C@H](C5=CC=CC=C5C6=CC=C(C=C6)Cl)O)S(=O)(=O)C(F)(F)F)CCO [AZD4320]; conditions: max 1 µM
Summary of the method: as §1

Alisertib = compound: COc1cc(Nc2ncc3c(n2)-c2ccc(Cl)cc2C(c2c(F)cccc2OC)=NC3)ccc1C(=O)O [Alisertib]; conditions: max 10 µM
Summary of the method: as §1

Etoposide = compound: COc1cc([C@@H]2c3cc4c(cc3[C@@H](O[C@@H]3O[C@@H]5CO[C@@H](C)O[C@H]5[C@H](O)[C@H]3O)[C@H]3COC(=O)[C@H]23)OCO4)cc(OC)c1O [Etoposide]; conditions: max 10 µM
Summary of the method: as §1

Gefitinib = compound: COc1cc2ncnc(Nc3ccc(F)c(Cl)c3)c2cc1OCCCN1CCOCC1 [Gefitinib]; conditions: max 10 µM
Summary of the method: as §1

Prexasertib = compound: COc1cccc(OCCCN)c1-c1cc(Nc2cnc(C#N)cn2)n[nH]1 [Prexasertib]; conditions: max 1 µM
Summary of the method: as §1

Doxorubicin = compound: COc1cccc2c1C(=O)c1c(O)c3c(c(O)c1C2=O)C[C@@](O)(C(=O)CO)C[C@@H]3O[C@H]1C[C@H](N)[C@H](O)[C@H](C)O1 [Doxorubicin]; conditions: max 1 µM
Summary of the method: as §1

AZD5153 = compound: COc1nnc2ccc(N3CCC(c4ccc(OCCN5CCN(C)C(=O)[C@H]5C)cc4)CC3)nn12 [AZD5153]; conditions: max 1 µM
Summary of the method: as §1

Lapatinib = compound: CS(=O)(=O)CCNCc1ccc(-c2ccc3ncnc(Nc4ccc(OCc5cccc(F)c5)c(Cl)c4)c3c2)o1 [Lapatinib]; conditions: max 10 µM
Summary of the method: as §1

AZD8186 = compound: C[C@@H](Nc1cc(F)cc(F)c1)c1cc(C(=O)N(C)C)cc2c(=O)cc(N3CCOCC3)oc12 [AZD8186]; conditions: max 10 µM
Summary of the method: as §1

Crizotinib = compound: C[C@@H](Oc1cc(-c2cnn(C3CCNCC3)c2)cnc1N)c1c(Cl)ccc(F)c1Cl [Crizotinib]; conditions: max 10 µM
Summary of the method: as §1

Savolitinib = compound: C[C@@H](c1ccc2nccn2c1)n1nnc2ncc(-c3cnn(C)c3)nc21 [Savolitinib]; conditions: max 1 µM
Summary of the method: as §1

AZD6738 = compound: C[C@@H]1COCCN1C2=NC(=NC(=C2)C3(CC3)[S@](=N)(=O)C)C4=C5C=CNC5=NC=C4 [AZD6738]; conditions: max 10 µM
Summary of the method: as §1

AZD5991 = compound: Cc1c2c(nn1C)CSCc1cc(n(C)n1)CSc1cc(c3ccccc3c1)OCCCc1c(C(=O)O)n(C)c3c-2c(Cl)ccc13 [AZD5991]; conditions: max 1 µM
Summary of the method: as §1

AZD7648 = compound: Cc1cc2ncnn2cc1Nc1ncc2c(n1)n(C1CCOCC1)c(=O)n2C [AZD7648]; conditions: max 10 µM
Summary of the method: as §1

Taselisib = compound: Cc1nc(-c2cn3c(n2)-c2ccc(-c4cnn(C(C)(C)C(N)=O)c4)cc2OCC3)n(C(C)C)n1 [Taselisib]; conditions: max 10 µM
Summary of the method: as §1

Selumetinib = compound: Cn1cnc2c(F)c(Nc3ccc(Br)cc3Cl)c(C(=O)NOCCO)cc21 [Selumetinib]; conditions: max 10 µM
Summary of the method: as §1

SRA737 = compound: N#Cc1cnc(Nc2cc(NC[C@H]3CNCCO3)c(C(F)(F)F)cn2)cn1 [SRA737]; conditions: max 10 µM
Summary of the method: as §1

MK-2206 = compound: NC1(c2ccc(-c3nc4ccn5c(=O)[nH]nc5c4cc3-c3ccccc3)cc2)CCC1 [MK-2206]; conditions: max 10 µM
Summary of the method: as §1

Gemcitabine = compound: Nc1ccn([C@@H]2O[C@H](CO)[C@@H](O)C2(F)F)c(=O)n1 [Gemcitabine]; conditions: max 0.3 µM
Summary of the method: as §1

[1] = compound: O=C(Nc1ccc2[nH]nc(-c3ccncc3)c2c1)[C@@H]1CCN(CC(=O)N2CCN(c3ccc(-c4ncccn4)cc3)CC2)C1; conditions: max 5 µM
Summary of the method: as §1

Olaparib = compound: O=C(c1cc(Cc2n[nH]c(=O)c3ccccc23)ccc1F)N1CCN(C(=O)C2CC2)CC1 [Olaparib]; conditions: max 10 µM
Summary of the method: as §1

5-Fluorouracil = compound: O=c1[nH]cc(F)c(=O)[nH]1 [5-Fluorouracil]; conditions: max 20 µM
Summary of the method: as §1

Row | Cell Line | IC50, cell viability 72 h (Carboplatin) [nM] | IC50, cell viability 72 h (AZD5363) [nM] | IC50, cell viability 72 h (AZD1775) [nM] | IC50, cell viability 72 h (Trametinib) [nM] | IC50, cell viability 72 h (Paclitaxel) [nM] | IC50, cell viability 72 h (Palbociclib) [nM] | IC50, cell viability 72 h (AZD1390) [nM] | IC50, cell viability 72 h (Venetoclax) [nM] | IC50, cell viability 72 h (Dasatinib) [nM] | IC50, cell viability 72 h (SG3199) [nM] | IC50, cell viability 72 h (AZD2811) [nM] | IC50, cell viability 72 h (SN-38) [nM] | IC50, cell viability 72 h (AZD0156) [nM] | IC50, cell viability 72 h (AZD4320) [nM] | IC50, cell viability 72 h (Alisertib) [nM] | IC50, cell viability 72 h (Etoposide) [nM] | IC50, cell viability 72 h (Gefitinib) [nM] | IC50, cell viability 72 h (Prexasertib) [nM] | IC50, cell viability 72 h (Doxorubicin) [nM] | IC50, cell viability 72 h (AZD5153) [nM] | IC50, cell viability 72 h (Lapatinib) [nM] | IC50, cell viability 72 h (AZD8186) [nM] | IC50, cell viability 72 h (Crizotinib) [nM] | IC50, cell viability 72 h (Savolitinib) [nM] | IC50, cell viability 72 h (AZD6738) [nM] | IC50, cell viability 72 h (AZD5991) [nM] | IC50, cell viability 72 h (AZD7648) [nM] | IC50, cell viability 72 h (Taselisib) [nM] | IC50, cell viability 72 h (Selumetinib) [nM] | IC50, cell viability 72 h (SRA737) [nM] | IC50, cell viability 72 h (MK-2206) [nM] | IC50, cell viability 72 h (Gemcitabine) [nM] | IC50, cell viability 72 h [1] [nM] | IC50, cell viability 72 h (Olaparib) [nM] | IC50, cell viability 72 h (5-Fluorouracil) [nM]
1 | ME-180 (Cervical Carcinoma) | > 10000 | 2130 | 1450 | > 1000 | 141 | > 10000 | > 300 | > 1000 | 1240 | > 1 | > 1000 | 15.8 | > 3000 | > 1000 | 9540 | 3730 | > 10000 | > 1000 | > 1000 | > 1000 | > 10000 | > 10000 | > 10000 | > 1000 | > 10000 | > 1000 | > 10000 | 734 | > 10000 | > 10000 | > 10000 | 130 | > 5000 | > 10000 | > 20000
2 | ML-2 (Acute Myeloid Leukemia) | > 10000 | 5950 | 243 | 20.6 | 5.85 | 2410 | > 300 | 118 | > 2000 | > 1 | 20.9 | 4.88 | > 3000 | 27.5 | 660 | 342 | > 10000 | 4.33 | 70.3 | 116 | > 10000 | > 10000 | 1950 | > 1000 | 1780 | 62.6 | > 10000 | 1530 | 381 | 995 | > 10000 | 13.6 | 290 | 8050 | 1550

Reference: the supplement of paper PMC11061612
